{"source": "patent US12678412B2", "about": "“Substituted tolans for the modulation of microbial colonization” (BioMendics, LLC, priority 2017, dated 2026)", "key": {"[1]": {"system": "Methicillin Resistant Staphylococcus aureus (MRSA USA 300)", "test": "Colony forming assay, spread plate, MRSA USA 300", "format": "cell-based", "details": "for Reduction of MRSA USA 300 counts: 24 h", "experimental": "A fresh culture of pathogenic isolate was used in these examples. The bacterial strains used were Methicillin Resistant Staphylococcus aureus (MRSA USA 300), Pseudomonas aeruginosa ATCC 27312, and Candida albicans ATCC 64550.\nFIG. 5 illustrates the spread plate method used in these examples. In sum, agar plates were made, bacteria were diluted to 10^6 or 10^8 CFU/mL, bacteria and drug were mixed together and then plated. Glass spreading beads were used because they give a better bacterial spread. Plates were incubated for 24 hrs then the colonies that formed were counted.\nProliferating cultures of Methicillin Resistant Staphylococcus aureus (MRSA, USA 300) were used in a colony forming assay. Freeze-dried bacteria culture of MRSA was recovered by swabbing a 3-cm diameter growth area and resuspending it to obtain a final inoculum suspension of approximately 10^8 CFU/mL. The concentration was confirmed using historical optical density measurements. The total compound BM3103 was suspended in a 70% v/v alcohol gel formulation (Formulation A) before the introduction of bacteria, with the vehicle consisting of solely the 70% v/v alcohol gel. MRSA at 10^8 CFU/mL was challenged with equal parts of a high, medium, and low dose of BM3103, vehicle formulation, positive control (Tobramycin, 600 μg/mL), or untreated control (phosphate buffered saline). The inoculum was plated on Tryptic Soy Broth plates at 37° C. for 24 h. Plates were photographed and counted. The treatment for each experiment was done in triplicate, and the experiment was repeated three times, for a total of 9 plates per group.\nColony counts for each treatment were tabulated and the Log of the colony forming units/mL (Log CFU/mL) was determined. The mean and standard deviation of the Log CFU/mL were calculated for each treatment. A one-way analysis of variance was performed at a 95% confidence interval."}, "MRSA USA 400": {"system": "MRSA USA 400", "test": "Bacterial cell death, DAPI/propidium iodide staining", "format": "cell-based, Staphylococcus aureus", "details": "24 h treatment; 0.002 mM to 0.0625 mM; FIG. 13", "experimental": "In order to confirm that treatment with BM3103 induced MRSA USA 400 bacterial cell death, both untreated cells and cells treated with BM3103 were stained with a combination of DAPI (nuclear stain) and Propidium iodide (PI, Live dead stain). In a healthy cell, PI is not able to cross the cell membrane and produces no fluorescent signal. If the cell is dead or has a compromised cell membrane it will bind DNA and fluoresces between 535 nm excitation and 617 nm emission. MRSA USA 400 were plated in a well plate at 10^8 CFU/mL in combination with BM3103 treatment or no treatment. Plates were placed at 37° C. for 24 h. Bacteria cells were co-stained with DAPI and PI at 50 μg/mL and 500 μg/mL, respectively, for 15 min at room temperature. Wells were washed with warmed phosphate buffered saline (PBS) and maintained in PBS throughout the imaging acquisition process. Images were captured using the same exposure limits for each filter. […] Concentrations above 0.0625 mM gave a similar result."}, "MRSA USA 400 biofilms": {"system": "MRSA USA 400 biofilms", "test": "Treatment of an existing biofilm", "format": "cell-based, Staphylococcus aureus", "experimental": "For the treatment of MRSA USA 400 biofilms, the same 96 well plate assay procedure was used as described in the biofilm inhibition section above. However, the MRSA USA 400 inoculum (10^8 CFU/mL) grew overnight at 37° C. in the absence of BM3103 and without shaking. After 24 h of biofilm formation, BM3103 was serially diluted across a 96 well plate from of 1 mM to 0.002 mM. The plate was incubated again overnight at 37° C. without shaking."}, "MRSA USA 400 biofilm": {"system": "MRSA USA 400 biofilm", "test": "Biofilm inhibition assay (prevention of biofilm formation)", "format": "cell-based, Staphylococcus aureus", "details": "overnight 37° C.", "experimental": "Proliferating cultures of Methicillin Resistant Staphylococcus aureus (MRSA, USA 400) were used in a colony forming assay. Frozen stock cultures of MRSA USA 400 were thawed and grown overnight in tryptic soy broth (TSB) with shaking at 37° C. The overnight culture (0.5-1.0 mL) was added to 100 mL TSB and grown at 37° C. with shaking and monitored for an optical density of 0.55-0.60 in order to obtain a final inoculum suspension of approximately 10^8 CFU/mL.\nFor the biofilm inhibition assay, 100 μL of MRSA USA 400 inoculum (10^8 CFU/mL) was plated with 100 μL of each BM3103 drug concentration in a 96 well plate. A 0.1 M stock of BM3103 was dissolved in ethanol and serially diluted in TSB across a 96 well plate to obtain final concentrations of 1 mM to 0.002 mM. The drug treated inoculum grew overnight at 37° C. without shaking."}}, "data": [{"compound": "COc1ccc(C#Cc2ccc(O)cc2)cc1", "note": "[BM3103, 4-hydroxy-4′-methoxytolan]", "values": [{"measurement": "Reduction in MRSA USA 300 counts compared to the positive control", "setting": "[1]; all three doses (0.05, 0.25, 0.5% w/v) vs Tobramycin 600 μg/mL", "result": "significantly greater reduction"}, {"measurement": "Reduction of MRSA USA 300 counts", "setting": "[1]; high dose 0.5% w/v, 22 mM, alcohol gel", "result": "approximately 8 fold"}, {"measurement": "Reduction of MRSA USA 300 counts", "setting": "[1]; low dose 0.05% w/v, 2 mM, 70% v/v alcohol gel (Formulation A), compared to vehicle and untreated controls", "result": "over 6 fold"}, {"measurement": "Reduction of MRSA USA 300 counts", "setting": "[1]; medium dose 0.25% w/v, 11 mM, alcohol gel, compared to vehicle and untreated control", "result": 7, "unit": "fold"}, {"measurement": "PI staining (cell death)", "setting": "MRSA USA 400", "result": "dose dependent increase in PI staining"}, {"measurement": "Reduction of established MRSA USA 400 biofilm", "setting": "MRSA USA 400 biofilms; 0.008 mM, 24 h treatment of 24 h biofilm, FIG. 14C", "result": "slight reduction in the biofilm"}, {"measurement": "Reduction of established MRSA USA 400 biofilm", "setting": "MRSA USA 400 biofilms; 0.0625 mM or above, 24 h treatment of 24 h biofilm, FIG. 14B", "result": "reduced the biofilm of MRSA USA 400 significantly"}, {"measurement": "Reduction of established MRSA USA 400 biofilm", "setting": "MRSA USA 400 biofilms; 0.125 mM, 24 h treatment of 24 h biofilm, FIG. 14A", "result": "reduced the biofilm of MRSA USA 400 significantly"}, {"measurement": "Reduction of established MRSA USA 400 biofilm", "setting": "MRSA USA 400 biofilms; concentrations below 0.002 mM, FIG. 14D", "result": "no reduction in the biofilm"}, {"measurement": "Biofilm formation of MRSA USA 400", "setting": "MRSA USA 400 biofilm; 0.008 mM, FIG. 12B", "result": "Mild biofilm formation"}, {"measurement": "Biofilm formation of MRSA USA 400", "setting": "MRSA USA 400 biofilm; 0.625 mM, FIG. 12A", "result": "inhibits biofilm formation of MRSA USA 400 completely"}, {"measurement": "Biofilm formation of MRSA USA 400", "setting": "MRSA USA 400 biofilm; about 0.002 mM, FIGS. 12C-12D", "result": "no effect on biofilm formation"}, {"measurement": "Concentrations that completely inhibit biofilm formation", "setting": "MRSA USA 400 biofilm", "result": "above 0.0625 mM"}]}]}
